From patent US20220235073A1, “ARTEMISININ-DERIVATIVE N-HETEROCYCLIC CARBENE GOLD(I) HYBRID COMPLEXES” (CENTRE NATIONAL DE LA RECHERCHE SCIENTIFIQUE, priority 2019, published 2022)

Key:
[1] = test system: HepG-2 human liver cancer cells; experiment: Cell viability MTT assay, HepG-2; format: cell-based
Description: (§1) PC-3 human prostate cancer cells, and LAMA chronic myeloid leukemia were cultured in RPMI 1640 containing 10% fetal bovine serum and 1% antibiotics (100 U/mL penicillin and 100 μg/mL streotimycin) at 37° C. in 5% CO2 humidified incubators. HL60 […] were cultured in RPMI 1640 containing 15% fetal bovine serum and 1% antibiotics (100 U/mL penicillin and 100 μg/mL streotimycin) at 37° C. in 5% CO2 humidified incubators. HepG-2 human liver cancer cells were cultured in EMEM containing 10% of FBS, 1% of nonessential amino acids, 1 mM of Na-pyruvate, 1% of PenStrep antibiotics and 600 μg/mL of Geneticin. A549 human lung carcinoma cells, T24 human bladder carcinoma cells, MCF-7 human breast adenocarcinoma cells, U-2OS human osteosarcoma and NIH3T3 murine fibroblast cells were cultured in DMEM medium containing 10% fetal bovine serum and 1% antibiotics at 37° C. in 5% CO2 humidified incubators. MC3T3 mouse osteoblast cells were cultured in MEM medium containing 10% fetal bovine serum and 1% antibiotics at 37° C. in 5% CO2 humidified incubators. RWPE-1 human prostate normal cells were cultured in K-SFM medium containing 0.05 mg/ml bovine pituitary extract (BPE) and 5 ng/ml epidermal growth factor (EGF) at 37° C. in 5% CO2 humidified incubators. The MTT reagent (3-(4,5-dimethylthiazol-2-yl)-2,5-diphenyltetrazolium bromide) was used to determine cell death as originally described by Mosmaneland modified by Cuvillier et al.^[6] Briefly, cells were seeded 5,000 to 10,000 cells/well in 24-well plates depending on the cell type and allowed to attach overnight. All of the complexes were dissolved in DMSO. The concentration of the complexes was calculated according to the elemental composition of the complexes determined by the elemental analyses. […] After solubilization with 500 μL of lysis buffer (DMSO), formazan was quantified by spectrophotometry with a microplate reader at 570 nm absorbance. […] All the results were calculated from data obtained in three independent experiments.

Nrf2 = experiment: NRF2 transcriptional activity, ARE Reporter Hep G2 cell line; format: cell-based, human; conditions: ARE Reporter Hep G2 cells, 16 hours, any dose
Description: The ARE Reporter Hep G2 cell line containing a firefly luciferase gene under the control of ARE stably integrated into Hep G2 cells was used to quantify NRF2 transcriptional activity after 16 hours of treatment with the indicated doses of the different complexes. The results are shown as fold induction of ARE luciferase reporter expression. Dashed line indicates a fold induction of 1 (values >1 mean activation and values <1 mean inhibition).
ARE-reporter-HepG-2 cells were harvested from culture in Growth Medium 1K and they were seeded at a concentration of 40,000 cells/well into white clear-bottom 96-well microplate in 45 μL of Growth Medium 1K without Geneticin. Cells were allowed to attach overnight and then treated with different concentrations of complex 2a (from 0.01 μM to 20 μM), auranofin (from 0.01 μM to 20 μM) or DHA (from 0.01 μM to 3, 5, 10, 20 and 50 μM), and complex (from 0.01 μM to 20 μM). After incubation at 37° C. and 5% CO2 for 16 hours, ONE-Step luciferase assay reagent (100 μL) was added and rock at room temperature for over 15 minutes. Then the luminescence of each well was determined by CLARIOstar microplate reader to quantify induction of ARE. Three independent experiments were performed as biological triplicates. The results are in FIG. 4.

Tumor cell models = experiment: MTT assay, panel of tumor cell models; format: cell-based, human; conditions: mean of PC-3, A549, U2OS, T24, MCF-7, LAMA, HL60
Description: as §1

[2] = test system: LAMA chronic myeloid leukemia; experiment: Cell viability MTT assay, LAMA; format: cell-based, human; conditions: for GI50: 72 h, MTT assay; for IC50: Table 3, tumor cell model
Description: (§2) PC-3 human prostate cancer cells, and LAMA chronic myeloid leukemia were cultured in RPMI 1640 containing 10% fetal bovine serum and 1% antibiotics (100 U/mL penicillin and 100 μg/mL streotimycin) at 37° C. in 5% CO2 humidified incubators. HL60 […] were cultured in RPMI 1640 containing 15% fetal bovine serum and 1% antibiotics (100 U/mL penicillin and 100 μg/mL streotimycin) at 37° C. in 5% CO2 humidified incubators. HepG-2 human liver cancer cells were cultured in EMEM containing 10% of FBS, 1% of nonessential amino acids, 1 mM of Na-pyruvate, 1% of PenStrep antibiotics and 600 μg/mL of Geneticin. A549 human lung carcinoma cells, T24 human bladder carcinoma cells, MCF-7 human breast adenocarcinoma cells, U-2OS human osteosarcoma and NIH3T3 murine fibroblast cells were cultured in DMEM medium containing 10% fetal bovine serum and 1% antibiotics at 37° C. in 5% CO2 humidified incubators. MC3T3 mouse osteoblast cells were cultured in MEM medium containing 10% fetal bovine serum and 1% antibiotics at 37° C. in 5% CO2 humidified incubators. RWPE-1 human prostate normal cells were cultured in K-SFM medium containing 0.05 mg/ml bovine pituitary extract (BPE) and 5 ng/ml epidermal growth factor (EGF) at 37° C. in 5% CO2 humidified incubators. The MTT reagent (3-(4,5-dimethylthiazol-2-yl)-2,5-diphenyltetrazolium bromide) was used to determine cell death as originally described by Mosmaneland modified by Cuvillier et al.^[6] Briefly, cells were seeded 5,000 to 10,000 cells/well in 24-well plates depending on the cell type and allowed to attach overnight. All of the complexes were dissolved in DMSO. The concentration of the complexes was calculated according to the elemental composition of the complexes determined by the elemental analyses. Media in the presence of the tested complexes were added and serially diluted to various concentrations (from 5 μM to 0.01 μM). Next to these concentrations, for DHA 50, 20 and 10 μM and for the cationic bisNHC gold(I) complex 3 0.001 μM have been used. […] After 72 h of treatment, cells were incubated at 37° C. and 5% CO2 with 25 μL MTT solution (5 mg/mL; Sigma-Aldrich) in 24-well plates for approximately 3 to 4 h. After solubilization with 500 μL of lysis buffer (DMSO), formazan was quantified by spectrophotometry with a microplate reader at 570 nm absorbance. The GI50 values corresponding to the concentration that caused 50% inhibition of cell proliferation were calculated from dose-response curves obtained by nonlinear regression analysis (Prism 8, Graphpad Software). All the results were calculated from data obtained in three independent experiments.

[3] = test system: A549 human lung carcinoma cells; experiment: Cell viability MTT assay, A549; format: cell-based; conditions: for GI50: 72 h, MTT assay; for IC50: Table 3, tumor cell model
Description: as §2

SMILES	GI50 ([1]; 72 h) [µM]	Effect on activity of Nrf2 (Nrf2)	IC50 (Tumor cell models) [µM]	GI50 [2] [µM]	IC50 [2] [µM]	GI50 [3] [µM]	IC50 [3] [µM]	GI50 ([1]; Homo sapiens, HepG2, 72 h) [µM]	IC50 (Tumor cell models; Homo sapiens) [µM]	GI50 ([2]; Homo sapiens) [µM]	IC50 ([2]; Homo sapiens) [µM]	GI50 ([3]; Homo sapiens, A549) [µM]	IC50 ([3]; Homo sapiens, A549) [µM]
CC(=O)OC[C@H]1O[C@@H]([S-])[C@H](OC(C)=O)[C@@H](OC(C)=O)[C@@H]1OC(C)=O.CCP(CC)CC.[Au+] [Auranofin]	3.62	activate	1.46	0.81	0.809	4.41	4.41	–	–	–	–	–	–
C[C@H]1[C@@H](O)O[C@@H]2O[C@]3(C)CC[C@H]4[C@H](C)CC[C@@H]1[C@@]24OO3 [DHA, dihydroartemisinin]	–	–	–	–	–	–	–	12	5.74	5.6	5.6	11	11
